Data taken from US7273846B2, “Selective melanin-concentrating hormone type-1 receptor agonists” (priority 2002, dated 2007).
Read-outs that look alike come from different tables or passages of the source. Residues, ends and D or L forms follow the SMILES beside them.

Columns and labels:
MCH-1R [1] = molecular target: T1, MCH-1R (Homo sapiens, UniProt Q99705); test: Aequorin bioluminescence functional assay, 293AEQ17/MCH-1R cells; assay type: cell-based; design: expressed in transfected cells; conditions: for MCH-1R Activation %: human MCH = 100, activation at 10 μM concentration
Method: (§1) The aequorin bioluminescence assay is a reliable test for identifying G-protein-coupled receptors that couple through the G protein subunit family consisting of Gq and G11. Gq and G11 coupling leads to the activation of phospholipase C, mobilization of intracellular calcium, and activation of protein kinase C.
Stable cell lines expressing either the MCH-1R or the MCH-2R and the aequorin reporter protein were used. The assay was performed using a Luminoskan RT luminometer (Labsystems Inc., Gaithersburg, Md.) controlled by custom software written for a Macintosh PowerPC 6100.
(§2) The cells were harvested, washed once in ECB medium, and resuspended to 500,000 cells/mL. 100 μL of cell suspension (corresponding to 5×10^4 cells) was then injected into the test plate containing the hMCH peptides, and the integrated light emission was recorded over 30 seconds, in 0.5-s units. 20 μL of lysis buffer (0.1% final Triton X-100 concentration) was then injected and the integrated light emission recorded over 10 seconds, in 0.5-s units. The “fractional response” values for each well were calculated by taking the ratio of the integrated response to the initial challenge to the total integrated luminescence including the Triton X-100 lysis response.

MCH-2R = MCH-2R (Homo sapiens, UniProt Q969V1); test: Aequorin bioluminescence functional assay, 293AEQ17/MCH-2R cells; assay type: cell-based; design: expressed in transfected cells; MCH-2R Activation %: concentration or dose not given beside the values; conditions: for MCH-2R Activation %: human MCH = 100; for EC50: aequorin, 293AEQ17/MCH-2R cells
Source text: as §1
Stable cell lines expressing either the MCH-1R or the MCH-2R and the aequorin reporter protein were used.
as §2

MCH-1R [2] = molecular target: T1, MCH-1R
[3] = aequorin, 293AEQ17/MCH-1R cells, read-out: MCH-1R EC50

T1 sequence (Q99705 whole entry): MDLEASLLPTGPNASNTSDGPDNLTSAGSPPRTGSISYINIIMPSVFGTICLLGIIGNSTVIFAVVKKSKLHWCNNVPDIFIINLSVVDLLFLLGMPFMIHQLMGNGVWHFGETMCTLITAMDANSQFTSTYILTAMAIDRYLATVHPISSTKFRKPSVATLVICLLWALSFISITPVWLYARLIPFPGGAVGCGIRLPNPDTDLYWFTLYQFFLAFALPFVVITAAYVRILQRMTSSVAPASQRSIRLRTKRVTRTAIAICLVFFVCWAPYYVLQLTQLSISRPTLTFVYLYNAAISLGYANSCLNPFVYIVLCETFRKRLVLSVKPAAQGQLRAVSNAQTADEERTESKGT
MCH-2R, sequence (Q969V1 whole entry): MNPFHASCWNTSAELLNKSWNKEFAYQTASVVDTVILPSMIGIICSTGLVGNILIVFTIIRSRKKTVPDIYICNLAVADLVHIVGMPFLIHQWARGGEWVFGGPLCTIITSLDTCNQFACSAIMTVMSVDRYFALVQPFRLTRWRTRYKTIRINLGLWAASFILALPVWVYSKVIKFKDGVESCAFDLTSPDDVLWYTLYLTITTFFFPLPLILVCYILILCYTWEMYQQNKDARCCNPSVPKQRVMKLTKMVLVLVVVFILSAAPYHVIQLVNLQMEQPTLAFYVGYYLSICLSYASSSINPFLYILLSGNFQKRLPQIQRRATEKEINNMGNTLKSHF

SMILES | MCH-1R Activation % (MCH-1R [1]) [%] | MCH-2R Activation % (MCH-2R) [%] | Selectivity 2/1 (MCH-2R/MCH-1R IC50 binding ratio) (MCH-1R [2]) | Selectivity 2/1 (MCH-2R/MCH-1R EC50 activity ratio) (MCH-1R [1]) | EC50 (MCH-1R [1]; [3]) [nM] | fold lower binding affinity for hMCH-1R (MCH-1R [2]; relative to the D-Arg^6 compound) | EC50 (MCH-2R) [nM] | fold more selective as agonist for hMCH-1R than hMCH-2R (MCH-1R [1]) | fold lower agonist activity at hMCH-1R (MCH-1R [1]; relative to Ac-hMCH(6-16)-NH2) [fold] | agonism at hMCH-1R in words (MCH-1R [1]) | agonism at hMCH-2R in words (MCH-2R) | EC50 (MCH-1R [1]) [nM]
CSCC[C@@H]1NC(=O)[C@@H](NC(=O)[C@H](CCCNC(=N)N)NC(=O)[C@H](CC(C)C)NC(=O)[C@H](CCSC)NC(=O)[C@H](CC(=O)O)NC(=O)[C@H](Cc2ccccc2)NC(=O)[C@@H](N)CC(=O)O)CSSC[C@@H](C(=O)N[C@@H](Cc2c[nH]c3ccccc23)C(=O)N[C@@H](CCC(N)=O)C(=O)N[C@H](C(=O)O)C(C)C)NC(=O)[C@@H]2CCCN2C(=O)[C@H](CCCNC(=N)N)NC(=O)[C@H](Cc2ccc(O)cc2)NC(=O)[C@H](C(C)C)NC(=O)[C@H](CCCNC(=N)N)NC(=O)CNC(=O)[C@H](CC(C)C)NC1=O [SEQ. ID. NO. 1, human MCH, reference compound] | 100 | 100 |  |  |  |  |  |  |  |  |  | 
CSCC[C@@H]1NC(=O)[C@@H](NC(=O)[C@@H](C)NC(C)=O)CSSC[C@@H](C(N)=O)NC(=O)[C@@H]2CCCN2C(=O)[C@H](CCCNC(=N)N)NC(=O)[C@H](Cc2ccc(O)cc2)NC(=O)[C@H](C(C)C)NC(=O)[C@H](CCCNC(=N)N)NC(=O)CNC(=O)[C@H](CC(C)C)NC1=O [SEQ. ID. NO. 6] | 109 | 51 | 3500 | 30 | 160 |  |  |  |  |  |  | 
CSCC[C@@H]1NC(=O)[C@@H](NC(=O)[C@@H](Cc2ccccc2)NC(C)=O)CSSC[C@@H](C(N)=O)NC(=O)[C@@H]2CCCN2C(=O)[C@H](CCCNC(=N)N)NC(=O)[C@H](Cc2ccc(O)cc2)NC(=O)[C@H](C(C)C)NC(=O)[C@H](CCCNC(=N)N)NC(=O)CNC(=O)[C@H](CC(C)C)NC1=O [SEQ. ID. NO. 9] | 117 | 79 | 1380 | 7 | 66 |  |  |  |  |  |  | 
CSCC[C@@H]1NC(=O)[C@@H](NC(=O)[C@H](CCCNC(=N)N)NC(C)=O)CSSC[C@@H](C(N)=O)NC(=O)[C@@H]2CCCN2C(=O)[C@H](CCCNC(=N)N)NC(=O)[C@H](Cc2ccc(O)cc2)NC(=O)[C@H](C(C)C)NC(=O)[C@H](CCCNC(=N)N)NC(=O)[C@H](C)NC(=O)[C@H](CC(C)C)NC1=O [SEQ. ID. NO. 16] (HELM PEPTIDE1{[ac].R.C.M.L.A.R.V.Y.R.P.C.[am]}$PEPTIDE1,PEPTIDE1,3:R3-12:R3$$$V2.0) | 121 | 102 | 16 | 0.29 | 51 |  |  |  |  |  |  | 
CSCC[C@@H]1NC(=O)[C@@H](NC(=O)[C@H](CCCNC(=N)N)NC(C)=O)CSSC[C@@H](C(N)=O)NC(=O)[C@@H]2CCCN2C(=O)[C@H](CCCNC(=N)N)NC(=O)[C@H](Cc2ccc(O)cc2)NC(=O)[C@H](C(C)C)NC(=O)[C@H](CCCNC(=N)N)NC(=O)[C@H](Cc2ccc3ccccc3c2)NC(=O)[C@H](CC(C)C)NC1=O [SEQ. ID. NO. 21] | 7 | 105 | 14 |  | > 10000 |  |  |  |  |  |  | 
CSCC[C@@H]1NC(=O)[C@@H](NC(=O)[C@H](CCCNC(=N)N)NC(C)=O)CSSC[C@@H](C(N)=O)NC(=O)[C@@H]2CCCN2C(=O)[C@H](CCCNC(=N)N)NC(=O)[C@H](Cc2ccc(O)cc2)NC(=O)[C@H](C(C)C)NC(=O)[C@H](CCCNC(=N)N)NC(=O)[C@H](CCCNC(=N)N)NC(=O)[C@H](CC(C)C)NC1=O [SEQ. ID. NO. 23] (HELM PEPTIDE1{[ac].R.C.M.L.R.R.V.Y.R.P.C.[am]}$PEPTIDE1,PEPTIDE1,3:R3-12:R3$$$V2.0) | 7 | 38 | 0.7 |  | > 10000 |  |  |  |  |  |  | 
CSCC[C@@H]1NC(=O)[C@@H](NC(=O)[C@H](CCCNC(=N)N)NC(C)=O)CSSC[C@@H](C(N)=O)NC(=O)[C@@H]2CCCN2C(=O)[C@H](CCCNC(=N)N)NC(=O)[C@H](Cc2ccc(O)cc2)NC(=O)[C@H](C(C)C)NC(=O)[C@H](CCCNC(=N)N)NC(=O)[C@H](CCC(=O)O)NC(=O)[C@H](CC(C)C)NC1=O [SEQ. ID. NO. 28] | 21 | 22 |  |  |  |  |  |  |  | practically inactive | practically inactive | > 10000
CSCC[C@@H]1NC(=O)[C@@H](NC(=O)[C@@H](CCCNC(=N)N)NC(C)=O)CSSC[C@@H](C(N)=O)NC(=O)[C@@H]2CCCN2C(=O)[C@H](CCCNC(=N)N)NC(=O)[C@H](Cc2ccc(O)cc2)NC(=O)[C@H](C(C)C)NC(=O)[C@H](CCCNC(=N)N)NC(=O)[C@H](CCC(N)=O)NC(=O)[C@H](CC(C)C)NC1=O [SEQ. ID. NO. 30] (HELM PEPTIDE1{[ac].[dR].C.M.L.Q.R.V.Y.R.P.C.[am]}$PEPTIDE1,PEPTIDE1,3:R3-12:R3$$$V2.0) | 74 | 11 | 230 |  |  |  | > 10000 | about 150 fold |  | activated hMCH-1R almost as efficiently as Ac-hMCH(6-16)NH2 |  | 
CCCC[C@@H]1NC(=O)[C@@H](NC(=O)[C@H](N)CCCNC(=N)N)CSSC[C@@H](C(N)=O)NC(=O)[C@@H]2CCCN2C(=O)[C@H](CCCNC(=N)N)NC(=O)[C@H](Cc2ccc(O)cc2)NC(=O)[C@H](C(C)C)NC(=O)[C@H](CCCNC(=N)N)NC(=O)[C@H](CC(N)=O)NC(=O)[C@H](CC(C)C)NC1=O [SEQ. ID. NO. 32] (HELM PEPTIDE1{[dR].C.[Nle].L.N.R.V.Y.R.P.C.[am]}$PEPTIDE1,PEPTIDE1,2:R3-11:R3$$$V2.0) |  |  |  |  |  |  |  |  |  | potent and selective hMCH-1R agonists |  | 

The next lines start with results.

MCH-1R Activation % (MCH-1R [1]) [%] | MCH-2R Activation % (MCH-2R) [%] | Selectivity 2/1 (MCH-2R/MCH-1R IC50 binding ratio) (MCH-1R [2]) | Selectivity 2/1 (MCH-2R/MCH-1R EC50 activity ratio) (MCH-1R [1]) | EC50 (MCH-1R [1]; [3]) [nM] | fold lower binding affinity for hMCH-1R (MCH-1R [2]; relative to the D-Arg^6 compound) | EC50 (MCH-2R) [nM] | fold more selective as agonist for hMCH-1R than hMCH-2R (MCH-1R [1]) | fold lower agonist activity at hMCH-1R (MCH-1R [1]; relative to Ac-hMCH(6-16)-NH2) [fold] | SMILES | agonism at hMCH-1R in words (MCH-1R [1]) | agonism at hMCH-2R in words (MCH-2R) | EC50 (MCH-1R [1]) [nM]
99 |  |  |  |  |  |  |  |  | CSCC[C@@H]1NC(=O)[C@@H](NC(=O)[C@H](CCCNC(=N)N)NC(C)=O)CSSC[C@@H](C(N)=O)NC(=O)[C@@H]2CCCN2C(=O)[C@H](CCCNC(=N)N)NC(=O)[C@H](Cc2ccc(O)cc2)NC(=O)[C@H](C(C)C)NC(=O)[C@H](CCCNC(=N)N)NC(=O)CNC(=O)[C@H](CC(C)C)NC1=O [SEQ. ID. NO. 2, Ac-hMCH(6-16)-NH2, reference compound] |  |  | 
91 | 68 | 43 | 0.3 | 920 | about 30 fold | 310 |  |  | CSCC[C@@H]1NC(=O)[C@@H](NC(=O)[C@@H](CCCNC(N)=O)NC(C)=O)CSSC[C@@H](C(N)=O)NC(=O)[C@@H]2CCCN2C(=O)[C@H](CCCNC(=N)N)NC(=O)[C@H](Cc2ccc(O)cc2)NC(=O)[C@H](C(C)C)NC(=O)[C@H](CCCNC(=N)N)NC(=O)CNC(=O)[C@H](CC(C)C)NC1=O [SEQ. ID. NO. 14] | lower than those of the L-Arg^6 compound | lower than those of the L-Arg^6 compound | 
123 | 74 | 1900 | 1.8 |  |  |  |  |  | CSCC[C@@H]1NC(=O)[C@@H](NC(=O)[C@H](CCCNC(=N)N)NC(C)=O)CSSC[C@@H](C(N)=O)NC(=O)[C@@H]2CCCN2C(=O)[C@H](CCCNC(=N)N)NC(=O)[C@H](Cc2ccc(O)cc2)NC(=O)[C@H](C(C)C)NC(=O)[C@H](CCCNC(=N)N)NC(=O)[C@H](CC(C)C)NC(=O)[C@H](CC(C)C)NC1=O [SEQ. ID. NO. 17] |  |  | 
91 | 68 | 42 | 0.3 | 920 |  |  |  |  | CSCC[C@@H]1NC(=O)[C@@H](NC(=O)[C@H](CCCNC(=N)N)NC(C)=O)CSSC[C@@H](C(N)=O)NC(=O)[C@@H]2CCCN2C(=O)[C@H](CCCNC(=N)N)NC(=O)[C@H](Cc2ccc(O)cc2)NC(=O)[C@H](C(C)C)NC(=O)[C@H](CCCNC(=N)N)NC(=O)[C@H](CCCNC(N)=O)NC(=O)[C@H](CC(C)C)NC1=O [SEQ. ID. NO. 27] |  |  | 
109 | 17 |  |  | 260 |  | > 10000 | about 50 fold | 5 | CSCC[C@@H]1NC(=O)[C@@H](NC(=O)[C@@H](CCCNC(=N)N)NC(C)=O)CSSC[C@@H](C(N)=O)NC(=O)[C@@H]2CCCN2C(=O)[C@H](C)NC(=O)[C@H](Cc2ccc(O)cc2)NC(=O)[C@H](C(C)C)NC(=O)[C@H](CCCNC(=N)N)NC(=O)[C@H](CC(N)=O)NC(=O)[C@H](CC(C)C)NC1=O [SEQ. ID. NO. 33] (HELM PEPTIDE1{[ac].[dR].C.M.L.N.R.V.Y.A.P.C.[am]}$PEPTIDE1,PEPTIDE1,3:R3-12:R3$$$V2.0) |  |  | 
